Where two headings read alike, the source gives them in different places.
Key:
[1] = system: Ba/F3_CSF-1R (stably expressing human CSF-1R kinase); experiment: Cell proliferation assay, Ba/F3_CSF-1R; type: cell-based; conditions: BaF3, 72 h
EOC2 cell = experiment: Cell proliferation assay, EOC2; type: cell-based, mouse; conditions: Mus musculus, 72 h
CSF-1R = CSF-1R (Homo sapiens (Human), UniProt P07333); experiment: Biochemical HTRF kinase assay, CSF-1R; conditions: Table 2; recombinant human CSF-1R;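 note: enzyme incubated with inhibitor plus a substrate and ATP mix for one hour at room temperature before HTRF detection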
CSF-1R, sequence (P07333 20-972): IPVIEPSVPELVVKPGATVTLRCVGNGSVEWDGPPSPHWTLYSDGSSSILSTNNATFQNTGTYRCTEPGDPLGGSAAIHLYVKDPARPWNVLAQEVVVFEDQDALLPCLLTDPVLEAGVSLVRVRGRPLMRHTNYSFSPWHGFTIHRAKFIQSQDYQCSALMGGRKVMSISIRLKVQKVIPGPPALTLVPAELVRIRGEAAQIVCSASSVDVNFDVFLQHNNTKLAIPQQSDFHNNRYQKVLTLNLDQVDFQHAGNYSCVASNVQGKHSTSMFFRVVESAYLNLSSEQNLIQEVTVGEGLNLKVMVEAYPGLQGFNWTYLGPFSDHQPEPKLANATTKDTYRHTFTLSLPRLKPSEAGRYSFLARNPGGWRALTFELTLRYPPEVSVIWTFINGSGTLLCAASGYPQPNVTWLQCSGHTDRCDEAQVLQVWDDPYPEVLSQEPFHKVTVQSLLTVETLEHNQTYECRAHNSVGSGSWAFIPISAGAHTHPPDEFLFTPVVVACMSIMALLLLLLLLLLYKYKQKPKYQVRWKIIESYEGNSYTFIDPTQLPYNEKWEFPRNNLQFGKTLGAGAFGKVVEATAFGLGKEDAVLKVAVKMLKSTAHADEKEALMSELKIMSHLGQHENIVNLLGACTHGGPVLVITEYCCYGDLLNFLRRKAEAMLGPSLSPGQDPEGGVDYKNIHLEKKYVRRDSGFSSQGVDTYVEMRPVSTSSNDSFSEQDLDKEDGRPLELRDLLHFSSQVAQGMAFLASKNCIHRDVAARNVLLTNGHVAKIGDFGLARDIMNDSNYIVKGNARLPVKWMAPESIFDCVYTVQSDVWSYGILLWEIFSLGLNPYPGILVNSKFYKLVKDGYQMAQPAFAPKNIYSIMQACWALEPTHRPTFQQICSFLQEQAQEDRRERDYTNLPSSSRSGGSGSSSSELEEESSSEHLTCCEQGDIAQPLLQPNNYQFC

[2] = Ba/F3_CSF-1R cells, 72 hours treatment, read-out: CSF-1R BaF3 EC50
[3] = EOC2 cells, 72 hours treatment, read-out: ECO2 EC50

SMILES | EC50 [1, 2] | EC50 (EOC2 cell; [3]) | IC50 (CSF-1R) | EC50 ([1]; read-out: CSF-1R BaF3 EC50 (nM)) | EC50 (EOC2 cell; read-out: ECO2 EC50 (nM))
COc1ccc(COc2ccc(Cc3ccnc4cc(OC)ccc34)cc2OC)cc1 [Example 1] | 42.6 nM | 42 nM | – | – | –
COc1ccc(COc2ccc(Cc3ccnc4ccccc34)cc2OC)cc1 [Example 3] | 89.2 nM | – | – | – | –
COc1ccc2c(Cc3ccc(OCc4cccnc4)c(OC)c3)ccnc2c1 [Example 8] | 546 nM | – | – | – | –
COc1ccc2c(Cc3ccc(OCc4ccccn4)c(OC)c3)ccnc2c1 [Example 9] | 901 nM | – | 169 nM | – | –
COc1ccc2c(Cc3ccc(OCc4ccncc4)c(OC)c3)ccnc2c1 [Example 10] | > 1000 nM | – | 118 nM | – | –
COc1ccc2c(Cc3ccc(OCc4nc5ccccc5n4C)c(OC)c3)ccnc2c1 [Example 11] | > 1000 nM | – | 149 nM | – | –
COc1ccc2c(Cc3ccc(OCc4ccc5cnn(C)c5c4)c(OC)c3)ccnc2c1 [Example 12] | > 1000 nM | – | 299 nM | – | –
COc1ccc(COc2ncc(Cc3ccnc4cc(OC)ccc34)cc2OC)nc1 [Example 13, 7-methoxy-4-((5-methoxy-6-((5-methoxypyridin-2-yl)methoxy)pyridin-3-yl)methyl)quinolone] | 176 nM | 151 nM | – | – | –
COc1ccc(COc2ncc(Cc3ccnc4cnccc34)cc2OC)nc1 [Example 19, 4-((5-methoxy-6-((5-methoxypyridin-2-yl)methoxy)pyridin-3-yl)methyl)-1,7-naphthyridine] | > 1000 nM | – | 47.6 nM | – | –
COc1ccc(COc2ncc(Cc3ccnc4cncnc34)cc2OC)nc1 [Example 22, 8-((5-methoxy-6-((5-methoxypyridin-2-yl)methoxy)pyridin-3-yl)methyl)pyrido[3,2-d]pyrimidine] | > 1000 nM | – | 64 nM | – | –
COc1ccc2c(Cc3ccc(OCc4cc(C)nn4C)c(OC)c3)ccnc2c1 [Example 23] | 323 nM | – | 8 nM | – | –
COc1ccc2c(Cc3ccc(OCc4ccn(C)c(=O)c4)c(OC)c3)ccnc2c1 [Example 25] | 583 nM | – | 40 nM | – | –
COc1ccc2c(Cc3ccc(OCc4ccc(=O)n(C)c4)c(OC)c3)ccnc2c1 [Example 26] | 283 nM | – | 5 nM | – | –
COc1ccc2c(Cc3ccc(OCc4cccc(C(F)(F)F)c4)c(OC)c3)ccnc2c1 [Example 27] | 207 nM | – | 117 nM | – | –
COc1cccc(COc2ccc(Cc3ccnc4cc(OC)ccc34)cc2OC)c1 [Example 28] | 356 nM | – | 25.7 nM | – | –
COc1ccc2c(Cc3ccc(OCc4ccccc4OC)c(OC)c3)ccnc2c1 [Example 29] | 873 nM | – | 73.9 nM | – | –
COc1cnc2c(Cc3cnc(OCc4cnn(C)c4)c(OC)c3)ccnc2c1 [Example 37] | > 1000 nM | > 1000 nM | – | – | –
COc1cnc2c(Cc3cnc(OCc4ccc(Cl)cn4)c(OC)c3)ccnc2c1 [Example 58] | 93.9 nM | 42.9 nM | – | – | –
COc1ccc(COc2ncc(Cc3ccnc4cc(Cl)cnc34)cc2OC)nc1 [Example 62, 3-chloro-8-((5-methoxy-6-((5-methoxypyridin-2-yl)methoxy)pyridin-3-yl)methyl)-1,5-naphthyridine] | – | – | – | 177 nM | 496 nM
COc1ccc(COc2ncc(Cc3ccnc4cc(N5CCOCC5)cnc34)cc2OC)nc1 [Example 119, 4-(8-((5-methoxy-6-((5-methoxypyridin-2-yl)methoxy)pyridin-3-yl)methyl)-1,5-naphthyridin-3-yl)morpholine] | 15.9 nM | 8 nM | – | – | –
COc1ccc(COc2ncc(Cc3ccnc4cc(N5CC6CC(C5)O6)cnc34)cc2OC)nc1 [Example 131] | 9.9 nM | 6.7 nM | – | – | –
COc1ccc(COc2ncc(Cc3ccnc4cc(C5CC5)cnc34)cc2OC)nc1 [Example 137] | 46.7 nM | 65 nM | – | – | –
COc1cnc2c(Cc3ccc4nc(N5CCC(OC)CC5)cnc4c3)ccnc2c1 [Example 153, 3-methoxy-8-[[2-(4-methoxy-1-piperidyl)quinoxalin-6-yl]methyl]-1,5-naphthyridine] | > 1000 nM | > 1000 nM | – | – | –
